From ChEMBL document CHEMBL1201862, “PubChem BioAssay data set” (2004) come the findings set out here.

One assay addresses Focal adhesion kinase 1 (Homo sapiens, UniProt Q05397). In kind it is functional.
The target in assay [1] is Calcium/calmodulin-dependent protein kinase type II subunit delta (Homo sapiens, UniProt Q13557). In kind it is functional.
Assay [2] concerns the target Glycogen synthase kinase-3 beta (Homo sapiens, UniProt P49841). In kind it is functional.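 Also: value comes from a broad kinome profiling panel, with GSK3B as the panel member.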
The target in assay [3] is Calcium/calmodulin-dependent protein kinase type 1 (Homo sapiens, UniProt Q14012). In kind it is functional.
Assay [4] deals with Dual specificity tyrosine-phosphorylation-regulated kinase 1A (Homo sapiens, UniProt Q13627). In kind it is functional.
In assay [5] the target is Cyclin-dependent kinase 5 (Homo sapiens, UniProt Q00535). In kind it is functional.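 Also: CDK5 measured as one member of a kinase profiling panel.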
In assay [6] the target is Rho-associated protein kinase 1 (Homo sapiens, UniProt Q13464). In kind it is functional.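 Also: measured within a broad kinome-wide panel profiling many kinases.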
Sequence of Rho-associated protein kinase 1 (Q13464 whole entry): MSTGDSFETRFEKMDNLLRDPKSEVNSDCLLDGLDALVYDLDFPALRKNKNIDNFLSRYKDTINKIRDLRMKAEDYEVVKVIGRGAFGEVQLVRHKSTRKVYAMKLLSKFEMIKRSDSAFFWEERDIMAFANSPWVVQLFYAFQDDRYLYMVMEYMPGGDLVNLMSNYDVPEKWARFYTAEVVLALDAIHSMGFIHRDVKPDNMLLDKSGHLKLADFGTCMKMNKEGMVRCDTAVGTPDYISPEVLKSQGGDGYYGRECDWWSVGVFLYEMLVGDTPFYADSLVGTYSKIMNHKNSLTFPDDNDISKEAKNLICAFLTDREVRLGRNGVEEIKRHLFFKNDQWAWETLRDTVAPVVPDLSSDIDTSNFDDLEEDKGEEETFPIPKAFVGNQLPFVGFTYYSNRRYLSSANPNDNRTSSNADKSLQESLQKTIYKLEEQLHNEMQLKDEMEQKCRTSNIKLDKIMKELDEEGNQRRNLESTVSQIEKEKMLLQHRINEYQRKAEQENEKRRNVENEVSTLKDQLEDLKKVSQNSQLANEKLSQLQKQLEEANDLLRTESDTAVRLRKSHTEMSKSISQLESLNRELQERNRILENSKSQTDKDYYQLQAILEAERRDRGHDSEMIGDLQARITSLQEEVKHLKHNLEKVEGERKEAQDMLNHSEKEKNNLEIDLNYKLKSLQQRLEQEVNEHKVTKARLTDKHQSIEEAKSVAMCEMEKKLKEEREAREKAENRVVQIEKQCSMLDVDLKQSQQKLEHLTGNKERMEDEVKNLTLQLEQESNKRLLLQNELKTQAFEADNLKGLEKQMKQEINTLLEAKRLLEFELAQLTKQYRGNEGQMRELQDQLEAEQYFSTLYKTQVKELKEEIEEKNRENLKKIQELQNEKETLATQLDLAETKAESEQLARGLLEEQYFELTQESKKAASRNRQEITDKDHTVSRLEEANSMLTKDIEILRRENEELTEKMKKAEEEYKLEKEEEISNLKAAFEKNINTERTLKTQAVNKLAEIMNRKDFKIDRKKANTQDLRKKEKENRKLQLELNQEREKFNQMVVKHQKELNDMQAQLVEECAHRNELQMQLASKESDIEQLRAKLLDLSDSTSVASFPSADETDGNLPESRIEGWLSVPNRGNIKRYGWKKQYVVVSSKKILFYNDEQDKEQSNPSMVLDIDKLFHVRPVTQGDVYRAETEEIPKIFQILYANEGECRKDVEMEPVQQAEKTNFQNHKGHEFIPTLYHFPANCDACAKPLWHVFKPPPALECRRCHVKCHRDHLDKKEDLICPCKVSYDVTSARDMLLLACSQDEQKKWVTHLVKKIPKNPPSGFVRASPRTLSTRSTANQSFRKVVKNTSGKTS
The target of assay [7] is Eukaryotic elongation factor 2 kinase (Homo sapiens, UniProt O00418). In kind it is functional.
Assay [8] has as its target Phosphorylase b kinase gamma catalytic chain, liver/testis isoform (Homo sapiens, UniProt P15735). In kind it is functional.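 Also: PHKG2 measured as one member of a kinome-wide kinase panel.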
The target of assay [9] is Serine/threonine-protein kinase pim-2 (Homo sapiens, UniProt Q9P1W9). In kind it is functional.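 Also: value comes from a broad kinase panel profiling study in which PIM2 was one of the panel members.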
Sequence of Serine/threonine-protein kinase pim-2 (Q9P1W9 whole entry): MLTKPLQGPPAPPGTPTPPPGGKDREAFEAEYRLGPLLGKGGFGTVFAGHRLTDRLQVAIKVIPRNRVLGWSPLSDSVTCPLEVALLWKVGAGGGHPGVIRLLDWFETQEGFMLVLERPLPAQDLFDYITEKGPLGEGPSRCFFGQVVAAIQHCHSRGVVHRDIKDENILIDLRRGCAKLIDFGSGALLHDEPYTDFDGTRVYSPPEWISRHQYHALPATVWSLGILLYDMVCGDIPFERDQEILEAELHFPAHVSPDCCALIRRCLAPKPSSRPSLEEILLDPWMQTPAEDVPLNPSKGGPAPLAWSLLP
Assay [10] has as its target Serine/threonine-protein kinase NLK (Homo sapiens, UniProt Q9UBE8). Briefly: Navigating the Kinome. Panel member name: NLK. In kind it is functional.
Assay [11] concerns the target Ribosomal protein S6 kinase alpha-5 (Homo sapiens, UniProt O75582). In kind it is functional.
Assay [12] concerns the target Receptor tyrosine-protein kinase erbB-2 (Homo sapiens, UniProt P04626). Briefly: Navigating the Kinome. Panel member name: ERBB2. In kind it is functional.
The target of assay [13] is Serine/threonine-protein kinase PAK 4 (Homo sapiens, UniProt O96013). In kind it is functional.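 Also: value obtained within a kinome profiling panel in which PAK4 was one of the panel members.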
Assay [14] concerns the target Serine/threonine-protein kinase D3 (Homo sapiens, UniProt O94806). In kind it is functional.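 Also: determined within a kinase panel screen, with PRKCN as the panel member.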
For assay [15], the target named is Vascular endothelial growth factor receptor 3 (Homo sapiens, UniProt P35916). In kind it is functional.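 Also: value from a kinome-wide profiling panel, with FLT4 as the panel member.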
Assay [16] concerns the target Tyrosine-protein kinase receptor UFO (Homo sapiens, UniProt P30530). In kind it is functional.
Assay [17] deals with MAP kinase-interacting serine/threonine-protein kinase 2 (Homo sapiens, UniProt Q9HBH9). In kind it is functional.
Sequence of MAP kinase-interacting serine/threonine-protein kinase 2 (Q9HBH9 whole entry): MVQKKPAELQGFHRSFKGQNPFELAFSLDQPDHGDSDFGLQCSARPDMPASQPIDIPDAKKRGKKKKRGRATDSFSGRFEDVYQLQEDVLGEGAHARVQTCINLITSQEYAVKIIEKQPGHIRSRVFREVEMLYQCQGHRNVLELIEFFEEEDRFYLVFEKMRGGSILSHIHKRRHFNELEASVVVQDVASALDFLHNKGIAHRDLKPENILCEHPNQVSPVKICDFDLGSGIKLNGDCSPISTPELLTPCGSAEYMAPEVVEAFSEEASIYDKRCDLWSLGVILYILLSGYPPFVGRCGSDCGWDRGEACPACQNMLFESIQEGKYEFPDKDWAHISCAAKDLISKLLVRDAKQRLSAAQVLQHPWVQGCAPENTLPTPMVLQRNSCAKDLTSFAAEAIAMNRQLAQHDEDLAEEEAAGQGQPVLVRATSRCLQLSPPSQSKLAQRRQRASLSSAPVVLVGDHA
Assay [18] deals with Proto-oncogene tyrosine-protein kinase ROS (Homo sapiens, UniProt P08922). In kind it is functional.
The target of assay [19] is T1, Rac GTPase-activating protein 1 (Homo sapiens, UniProt Q9H0H5).
T1 sequence (Q9H0H5 whole entry): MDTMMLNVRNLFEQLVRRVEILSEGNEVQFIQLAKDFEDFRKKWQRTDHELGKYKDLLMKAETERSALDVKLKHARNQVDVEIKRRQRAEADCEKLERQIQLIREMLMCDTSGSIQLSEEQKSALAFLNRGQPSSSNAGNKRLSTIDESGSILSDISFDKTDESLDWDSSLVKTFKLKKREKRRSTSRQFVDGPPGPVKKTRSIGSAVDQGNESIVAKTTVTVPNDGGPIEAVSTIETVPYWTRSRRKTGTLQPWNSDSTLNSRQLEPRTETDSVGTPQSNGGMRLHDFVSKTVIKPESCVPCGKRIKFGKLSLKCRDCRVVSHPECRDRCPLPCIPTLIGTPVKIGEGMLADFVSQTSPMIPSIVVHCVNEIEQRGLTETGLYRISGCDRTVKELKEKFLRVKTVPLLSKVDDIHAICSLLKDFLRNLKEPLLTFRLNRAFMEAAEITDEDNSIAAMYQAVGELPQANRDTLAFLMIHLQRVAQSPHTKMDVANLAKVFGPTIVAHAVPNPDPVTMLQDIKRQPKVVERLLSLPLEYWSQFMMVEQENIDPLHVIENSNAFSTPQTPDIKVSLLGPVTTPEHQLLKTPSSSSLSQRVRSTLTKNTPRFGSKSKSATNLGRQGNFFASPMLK
Briefly: MgcRacGAP GTPase-activating activity inhibitors, confirmation, biochemical, ADP Hunter fluorescence, primary and confirmatory (AID 624330). In kind it is functional.

A further assay addresses Procathepsin L (Homo sapiens, UniProt P07711).
For assay [20], the target named is T2, Mannose-6-phosphate isomerase (Homo sapiens, UniProt P34949).
T2 sequence (P34949 whole entry): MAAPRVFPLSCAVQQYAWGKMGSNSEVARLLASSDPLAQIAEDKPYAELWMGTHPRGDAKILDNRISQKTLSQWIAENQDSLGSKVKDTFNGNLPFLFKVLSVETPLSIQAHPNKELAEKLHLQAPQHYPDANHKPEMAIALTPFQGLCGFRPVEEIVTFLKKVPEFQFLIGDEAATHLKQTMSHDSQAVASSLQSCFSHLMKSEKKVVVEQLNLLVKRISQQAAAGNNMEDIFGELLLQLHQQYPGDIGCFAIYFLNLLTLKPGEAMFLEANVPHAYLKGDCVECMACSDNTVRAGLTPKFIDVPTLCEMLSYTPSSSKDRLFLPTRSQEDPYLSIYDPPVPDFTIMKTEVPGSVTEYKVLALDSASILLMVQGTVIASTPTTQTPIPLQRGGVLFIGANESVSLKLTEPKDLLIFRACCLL
Briefly: human PMI inhibitors, high substrate, primary screen, biochemical, fluorescence intensity, high mannose 6-phosphate (AID 1220).

For assay [21], the target named is Glucose-6-phosphate 1-dehydrogenase (Homo sapiens, UniProt P11413). Briefly: human G6PD enzyme inhibitors, dose response, selectivity assay for P. falciparum G6PD inhibitor project, biochemical, fluorescence (AID 504792). In kind it is functional.
Sequence of Glucose-6-phosphate 1-dehydrogenase (P11413 whole entry): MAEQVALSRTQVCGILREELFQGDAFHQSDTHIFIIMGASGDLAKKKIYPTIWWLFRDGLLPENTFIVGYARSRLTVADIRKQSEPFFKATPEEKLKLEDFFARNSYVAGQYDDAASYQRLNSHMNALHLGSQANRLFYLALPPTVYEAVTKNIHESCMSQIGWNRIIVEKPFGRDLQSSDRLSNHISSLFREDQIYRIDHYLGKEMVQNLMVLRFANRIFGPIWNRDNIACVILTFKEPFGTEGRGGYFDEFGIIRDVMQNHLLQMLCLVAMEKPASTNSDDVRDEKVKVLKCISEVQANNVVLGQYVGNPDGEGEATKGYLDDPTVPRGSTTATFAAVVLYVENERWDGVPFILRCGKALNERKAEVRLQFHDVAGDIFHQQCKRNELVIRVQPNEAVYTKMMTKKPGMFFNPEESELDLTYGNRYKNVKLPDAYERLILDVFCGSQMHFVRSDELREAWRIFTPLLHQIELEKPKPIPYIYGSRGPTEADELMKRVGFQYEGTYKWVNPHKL
The subject of the next assay is HEK293. Briefly: inhibitors of LMP1-driven NF-kB reporter, dose response, cell-based, HEK293, luciferase, cherry-pick (AID 588343). In kind it is functional. Conditions: Homo sapiens.
For another assay, the target named is Cytochrome P450 2C19 (Homo sapiens, UniProt P33261). Briefly: Cytochrome panel assay with activity outcomes. Panel member name: p450-cyp2c19 Compounds with AC50 equal or less than 10 uM are considered active. In kind it is functional. Conditions: read-out: AC50.
Another assay has as its target Cytochrome P450 2C9 (Homo sapiens, UniProt P11712).
Assay [22] deals with T3, Sentrin-specific protease 8 (Homo sapiens, UniProt Q96LD8).
T3 sequence (Q96LD8 whole entry): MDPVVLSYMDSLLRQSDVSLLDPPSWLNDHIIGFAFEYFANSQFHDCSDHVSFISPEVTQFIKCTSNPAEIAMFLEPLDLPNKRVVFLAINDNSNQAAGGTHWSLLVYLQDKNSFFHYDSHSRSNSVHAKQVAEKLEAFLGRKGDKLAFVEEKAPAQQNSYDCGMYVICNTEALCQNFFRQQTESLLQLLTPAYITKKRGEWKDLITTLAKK
In kind it is functional.

Calls of active or inactive are those of the source.

Sequence of Glycogen synthase kinase-3 beta (P49841 whole entry): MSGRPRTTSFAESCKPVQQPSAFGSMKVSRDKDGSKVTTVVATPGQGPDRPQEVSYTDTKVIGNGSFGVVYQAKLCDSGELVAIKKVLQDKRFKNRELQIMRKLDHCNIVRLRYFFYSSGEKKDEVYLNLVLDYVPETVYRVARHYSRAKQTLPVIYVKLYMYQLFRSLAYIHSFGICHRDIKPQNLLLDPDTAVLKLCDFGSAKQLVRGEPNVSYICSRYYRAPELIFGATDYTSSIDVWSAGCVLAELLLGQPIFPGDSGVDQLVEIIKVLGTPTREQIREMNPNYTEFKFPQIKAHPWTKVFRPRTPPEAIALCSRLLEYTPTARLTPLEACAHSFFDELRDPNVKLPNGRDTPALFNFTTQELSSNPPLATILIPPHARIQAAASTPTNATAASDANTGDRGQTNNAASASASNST
Sequence of Serine/threonine-protein kinase NLK (Q9UBE8 whole entry): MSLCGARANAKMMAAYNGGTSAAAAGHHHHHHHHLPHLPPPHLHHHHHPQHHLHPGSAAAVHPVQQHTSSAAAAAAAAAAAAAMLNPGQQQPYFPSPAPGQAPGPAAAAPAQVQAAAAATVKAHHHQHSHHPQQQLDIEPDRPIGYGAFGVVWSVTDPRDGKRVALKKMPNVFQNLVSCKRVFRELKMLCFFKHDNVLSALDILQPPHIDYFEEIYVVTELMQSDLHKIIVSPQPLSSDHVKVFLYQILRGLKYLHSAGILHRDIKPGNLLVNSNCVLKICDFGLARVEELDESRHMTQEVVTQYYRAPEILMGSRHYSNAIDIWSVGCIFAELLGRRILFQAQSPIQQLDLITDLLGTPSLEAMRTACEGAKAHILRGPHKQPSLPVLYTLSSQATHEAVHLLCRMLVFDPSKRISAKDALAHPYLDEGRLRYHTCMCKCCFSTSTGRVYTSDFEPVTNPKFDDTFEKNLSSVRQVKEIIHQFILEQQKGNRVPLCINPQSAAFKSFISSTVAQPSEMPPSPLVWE
Sequence of Tyrosine-protein kinase receptor UFO (P30530 whole entry): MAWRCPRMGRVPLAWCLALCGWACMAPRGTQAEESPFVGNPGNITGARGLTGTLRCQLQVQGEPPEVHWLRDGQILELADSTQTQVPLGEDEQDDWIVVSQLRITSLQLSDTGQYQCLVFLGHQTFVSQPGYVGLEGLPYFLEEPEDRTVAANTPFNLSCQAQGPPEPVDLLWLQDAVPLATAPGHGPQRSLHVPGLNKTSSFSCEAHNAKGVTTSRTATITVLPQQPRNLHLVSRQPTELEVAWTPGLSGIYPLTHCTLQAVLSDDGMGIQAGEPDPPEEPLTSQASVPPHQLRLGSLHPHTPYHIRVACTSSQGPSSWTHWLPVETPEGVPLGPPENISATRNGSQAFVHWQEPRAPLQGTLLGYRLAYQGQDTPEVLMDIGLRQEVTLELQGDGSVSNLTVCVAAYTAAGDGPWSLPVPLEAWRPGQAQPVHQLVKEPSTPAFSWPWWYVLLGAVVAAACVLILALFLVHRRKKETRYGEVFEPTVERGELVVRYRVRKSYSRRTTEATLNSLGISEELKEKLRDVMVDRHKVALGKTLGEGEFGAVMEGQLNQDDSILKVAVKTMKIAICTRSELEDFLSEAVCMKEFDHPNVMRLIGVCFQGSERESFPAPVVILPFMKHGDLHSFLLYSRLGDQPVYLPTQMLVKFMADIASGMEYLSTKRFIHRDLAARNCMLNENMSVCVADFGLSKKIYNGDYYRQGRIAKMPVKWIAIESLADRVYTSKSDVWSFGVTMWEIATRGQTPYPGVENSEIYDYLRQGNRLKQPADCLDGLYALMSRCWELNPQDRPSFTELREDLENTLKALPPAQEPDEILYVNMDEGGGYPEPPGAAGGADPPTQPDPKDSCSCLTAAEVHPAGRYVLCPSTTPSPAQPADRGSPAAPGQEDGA
Sequence of Cytochrome P450 2C9 (P11712 whole entry): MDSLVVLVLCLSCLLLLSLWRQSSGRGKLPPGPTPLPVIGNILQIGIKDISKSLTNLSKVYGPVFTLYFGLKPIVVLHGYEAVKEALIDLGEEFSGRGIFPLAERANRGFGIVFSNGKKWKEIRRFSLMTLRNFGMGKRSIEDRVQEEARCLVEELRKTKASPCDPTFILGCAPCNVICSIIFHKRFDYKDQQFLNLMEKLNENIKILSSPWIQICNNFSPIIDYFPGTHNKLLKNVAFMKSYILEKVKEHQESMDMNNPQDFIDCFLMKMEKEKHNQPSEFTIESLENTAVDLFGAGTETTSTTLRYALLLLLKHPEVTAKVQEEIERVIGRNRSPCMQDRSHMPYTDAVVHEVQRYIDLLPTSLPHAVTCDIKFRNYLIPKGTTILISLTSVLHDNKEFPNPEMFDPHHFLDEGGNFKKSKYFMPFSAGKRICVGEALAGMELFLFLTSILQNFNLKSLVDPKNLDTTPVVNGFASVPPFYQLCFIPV

With `Cc1cccc(NC(=O)Nc2ccc3c(c2)CCc2sc4ncnc(N)c4c2-3)c1`, the Ki was 0.631 µM (active) on Focal adhesion kinase 1; > 6.31 µM (inactive) in assay [1]; 3.16 µM (active) in assay [2]; > 6.31 µM (inactive) in assay [3]; 0.316 µM (active) in assay [4]; > 10 µM (inactive) in assay [5]. The inhibitory constant (Ki) in assay [6] was 0.794 µM (active); in [7], > 3.98 µM (inactive); in [8], > 5.01 µM (inactive); in assay [9], 0.501 µM (active); in [10], 0.02 µM (active); in assay [11], > 2 µM (inactive). The Ki is > 1.58 µM (inactive) in [12]; > 5.01 µM (inactive) in [13]; 2.51 µM (active) in assay [14]; 0.158 µM (active) in assay [15]; 0.0158 µM (active) in assay [16]; 0.0794 µM (active) in [17]. For the same compound, the Ki in assay [18] is 2 µM (active).
In the case of `Cc1ccc(-n2sc3ccccc3c2=O)cc1`, the IC50 in [19] was 87.4 µM (active); on Procathepsin L, > 59.6 µM (not active); in assay [20], 22 µM (active); in assay [21], 30.1 µM (inactive).
Regarding `CCC(=O)NC(c1ccc(C)cc1)c1ccc2cccnc2c1O` (configuration not stated), the half-maximal activity concentration (AC50) in the assay on HEK293 was 4.51 µM (active).
Consider `N/C(=N\N=C/c1ccc(-c2ccc(O)c(C(=O)O)c2)o1)N[N+](=O)[O-]`, for which the AC50 on Cytochrome P450 2C19 is 39.8 µM (inconclusive); at Cytochrome P450 2C9, 7.94 µM (inconclusive).
In the case of `CC(=O)N(/N=C1\Sc2ccccc2C1=O)c1ccccc1C`, in assay [22], the concentration for half-maximal inhibition (IC50) was 3.46 µM (active).
